{"source": "a compilation of properties of binary mixtures (doi:10.1016/j.molliq.2017.06.010)", "assay": "xn = mol fraction of the nth substance listed", "conditions": "303.15 K, 100 kPa"}
{"smiles": "CCC(=O)[O-].OCC[NH2+]c1ccccc1", "note": "+ O", "values": [{"measurement": "electrical conductivity", "setting": "x2 = 0.015", "result": 0.0004, "unit": "S/m"}, {"measurement": "speed of sound", "setting": "x2 = 0.015", "result": 1522.1, "unit": "m/s"}, {"measurement": "viscosity", "setting": "x2 = 0.015", "result": 16.6, "unit": "mPa·s"}, {"measurement": "electrical conductivity", "setting": "x2 = 0.0341", "result": 0.0004, "unit": "S/m"}, {"measurement": "speed of sound", "setting": "x2 = 0.0341", "result": 1524.3, "unit": "m/s"}, {"measurement": "viscosity", "setting": "x2 = 0.0341", "result": 15.2, "unit": "mPa·s"}, {"measurement": "electrical conductivity", "setting": "x2 = 0.0417", "result": 0.0004, "unit": "S/m"}, {"measurement": "speed of sound", "setting": "x2 = 0.0417", "result": 1525.3, "unit": "m/s"}, {"measurement": "viscosity", "setting": "x2 = 0.0417", "result": 14.7, "unit": "mPa·s"}, {"measurement": "electrical conductivity", "setting": "x2 = 0.0546", "result": 0.0004, "unit": "S/m"}, {"measurement": "speed of sound", "setting": "x2 = 0.0546", "result": 1526.8, "unit": "m/s"}, {"measurement": "viscosity", "setting": "x2 = 0.0546", "result": 13.8, "unit": "mPa·s"}]}
{"smiles": "CCCC(=O)[O-].OCC[NH2+]c1ccccc1", "note": "+ O", "values": [{"measurement": "electrical conductivity", "setting": "x2 = 0.016", "result": 0.0005, "unit": "S/m"}, {"measurement": "speed of sound", "setting": "x2 = 0.016", "result": 1508.9, "unit": "m/s"}, {"measurement": "viscosity", "setting": "x2 = 0.016", "result": 18.1, "unit": "mPa·s"}, {"measurement": "electrical conductivity", "setting": "x2 = 0.0386", "result": 0.0005, "unit": "S/m"}, {"measurement": "speed of sound", "setting": "x2 = 0.0386", "result": 1509.4, "unit": "m/s"}, {"measurement": "viscosity", "setting": "x2 = 0.0386", "result": 16.9, "unit": "mPa·s"}, {"measurement": "electrical conductivity", "setting": "x2 = 0.0546", "result": 0.0005, "unit": "S/m"}, {"measurement": "speed of sound", "setting": "x2 = 0.0546", "result": 1509.8, "unit": "m/s"}, {"measurement": "viscosity", "setting": "x2 = 0.0546", "result": 16.3, "unit": "mPa·s"}, {"measurement": "electrical conductivity", "setting": "x2 = 0.0724", "result": 0.0005, "unit": "S/m"}, {"measurement": "speed of sound", "setting": "x2 = 0.0724", "result": 1510.4, "unit": "m/s"}, {"measurement": "viscosity", "setting": "x2 = 0.0724", "result": 15.4, "unit": "mPa·s"}]}
